{"source": "paper PMC6158327", "about": "“Negative Allosteric Modulators of mGlu7 Receptor as Putative Antipsychotic Drugs” (Frontiers in Molecular Neuroscience, 2018)", "key": {"mGlu7": {"target": "mGlu7", "set-up": "method as in Wright et al., 2000", "settings": "ref Wright et al., 2000; read-out: Ki (affinity of mGlu7 for glutamate); cited from earlier work"}, "mGlu7 receptor [1]": {"target": "T1, mGlu7 receptor (Homo sapiens, UniProt Q14831)", "T1 construct": "expressed in transfected cells", "T1 sequence (Q14831 35-915)": "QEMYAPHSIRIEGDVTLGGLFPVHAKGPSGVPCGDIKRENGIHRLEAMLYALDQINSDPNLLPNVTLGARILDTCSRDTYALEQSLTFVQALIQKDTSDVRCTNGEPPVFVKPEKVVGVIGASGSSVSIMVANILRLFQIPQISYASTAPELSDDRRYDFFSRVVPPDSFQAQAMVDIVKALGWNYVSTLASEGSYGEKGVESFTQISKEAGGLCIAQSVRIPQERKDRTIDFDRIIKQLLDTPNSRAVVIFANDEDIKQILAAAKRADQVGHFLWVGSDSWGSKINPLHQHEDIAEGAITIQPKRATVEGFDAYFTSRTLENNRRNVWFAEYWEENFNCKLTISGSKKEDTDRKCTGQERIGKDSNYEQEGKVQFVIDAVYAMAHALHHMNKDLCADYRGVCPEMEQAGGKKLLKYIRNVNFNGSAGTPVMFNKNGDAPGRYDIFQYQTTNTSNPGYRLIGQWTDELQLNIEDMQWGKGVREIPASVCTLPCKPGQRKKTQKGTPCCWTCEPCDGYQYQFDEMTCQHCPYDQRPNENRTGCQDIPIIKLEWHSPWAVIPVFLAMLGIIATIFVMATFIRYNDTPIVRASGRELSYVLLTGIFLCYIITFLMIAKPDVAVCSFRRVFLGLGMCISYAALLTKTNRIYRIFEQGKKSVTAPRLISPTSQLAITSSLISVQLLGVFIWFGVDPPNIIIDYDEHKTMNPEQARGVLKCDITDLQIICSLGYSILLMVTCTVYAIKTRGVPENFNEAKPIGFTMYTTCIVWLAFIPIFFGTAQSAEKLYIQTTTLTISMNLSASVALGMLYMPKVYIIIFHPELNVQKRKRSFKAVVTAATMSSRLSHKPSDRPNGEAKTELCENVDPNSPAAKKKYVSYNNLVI", "assay": "HTRF cAMP assay: antagonism of L-Glu (EC80) inhibition of forskolin-stimulated cAMP accumulation (NAM profile)", "type": "cell-based", "settings": "inhibition of forskolin-stimulated cAMP accumulation", "method": "(§1) A homogeneous time-resolved fluorescence (HTRF) cAMP dynamic 2 (Cisbio, Codolet, France) assay was performed as previously described ([Chruścicka et al., 2015]) with recombinant cell lines. Briefly, HEK 293 T-REx cells stably expressing mGlu7 receptor, were collected and suspended in Hanks-HEPES buffer. The cell suspension was added to compounds solution with 5 μM of forskolin (final concentration). After 5 min incubation in 37°C, 5 μl of cAMP-d2 conjugate in lysis buffer was added and mixed with the 10 μl cell suspension by means of an automated pipetting system (Tecan Evo 200, Tecan, Mannedorf, Switzerland). Next, 5 μl anti-cAMP cryptate conjugate was added and the fluorescence at 620 and 665 nm was read after 1 h (Tecan Infinite M1000). The results are shown as the 665 nm/620 nm ratio multiplied by 10^4. The detected signal was inversely proportional to the concentration of cAMP in the sample. […] Each experiment was performed three times (n = 3), and each data point was in triplicate."}, "[2]": {"tested_on": "prepulse-induced inhibition of the acoustic startle response", "assay": "Prepulse inhibition of the acoustic startle response", "type": "in vivo, Wistar rats", "settings": "MK-801 0.3 mg/kg, rats", "method": "The procedure was performed according to [Czyrak et al., 2003]. On the day before the experiment, the animals were subjected to a single startle session consisting of two trials, each presented 20 times during the session. During the first trial, a 120 dB, 40 ms pulse was presented, and on the second trial this pulse was preceded by a 75 dB, 20 ms prepulse. On the day of the experiment, the animals were habituated to the background white noise (65 dB) for 5 min (which continued throughout the test), after that the startle session was carried out as described above. Startle response amplitude was defined as the difference between the maximum force detected during a recording window and the force measured immediately before the stimulus onset (the threshold was set at 10 g). For each animal, the amplitudes were averaged separately for each type of trial. The PPI was calculated as the difference between the amplitudes of the pulse (P) and the prepulse + pulse (PP+P), divided by the amplitude of the pulse alone [([P - (PP + P)]/P)×100]."}, "mGlu7 receptor [3]": {"target": "T1, mGlu7 receptor", "assay": "HTRF cAMP assay: potentiation of forskolin action without agonist (inverse agonist properties)", "type": "cell-based", "settings": "T-REx 293 cells, 5 μM forskolin", "method": "as §1\nBoth compounds dose-dependently potentiated forskolin action, elevating cAMP concentration in the T-REx 293 cells (Figure 2B). […] This effect was not observed for an antagonist of mGluR7 – XAP044."}}, "note": "pKi: −log10 of the molar value. Structures can show the parent of a compound that is named as a salt.", "data": [{"smiles": "N[C@@H](CCC(=O)O)C(=O)O", "note": "[L-Glu]", "values": [{"measurement": "pKi", "setting": "mGlu7", "result": 3.06}, {"measurement": "L-Glu EC80 concentration", "setting": "mGlu7 receptor [1]", "result": 6260, "unit": "µM"}]}, {"smiles": "C[C@]12N[C@H](Cc3ccccc31)c1ccccc12", "note": "[MK-801, (5S,10R)-(+)-5-Methyl-10,11-dihydro-5H-dibenzo[a,d]cyclo-hepten-5,10-imine maleate]", "values": [{"measurement": "Prepulse-induced inhibition of the acoustic startle response after MK-801", "setting": "[2]", "result": "16 % of control"}]}, {"smiles": "O=c1c(Oc2ccc(I)cc2)coc2cc(O)ccc12", "note": "[XAP044]", "values": [{"measurement": "Potentiation of forskolin action (inverse agonist effect)", "setting": "mGlu7 receptor [3]", "result": "not observed"}]}]}
